Earlier results, collected in publication PMC9603901, “Therapeutic Potential of Antimicrobial Peptide PN5 against Multidrug-Resistant E. coli and Anti-Inflammatory Activity in a Septic Mouse Model” (Microbiology Spectrum, 2022).

How the values were obtained:
Parameters in all cases: method as in Asan hospital; key to susceptibility category: S: susceptible; R: resistant; I: intermediate
Conditions in all cases: ref Asan hospital, cited from earlier work
MDR E. coli ASEC 5 = system: MDR E. coli ASEC 5
MDR E. coli ASEC 13 = system: MDR E. coli ASEC 13
MDR E. coli ASEC 1 = system: MDR E. coli ASEC 1
MDR E. coli ASEC 4 = system: MDR E. coli ASEC 4
MDR E. coli ASEC 12 = system: MDR E. coli ASEC 12
MDR E. coli ASEC 6 = system: MDR E. coli ASEC 6

For `CO/N=C(\C(=O)N[C@@H]1C(=O)N2C(C(=O)O)=C(CSc3nc(=O)c(=O)[nH]n3C)CS[C@H]12)c1csc(N)n1` [Ceftriaxone], the MIC (MDR E. coli ASEC 5; ASEC 5 (ESBL), resistance information of clinical isolate) is listed as greater than 32 µg/mL, the susceptibility category (MDR E. coli ASEC 5; ASEC 5) is listed as “R” and the MIC (MDR E. coli ASEC 13; ASEC 13 (AmpC), resistance information of clinical isolate) is listed as greater than 32 µg/mL. The susceptibility category (MDR E. coli ASEC 13; ASEC 13) was “R”, the MIC (MDR E. coli ASEC 1; ASEC 1 (carbapenemase NDM-1), resistance information of clinical isolate) was greater than 32 µg/mL and the susceptibility category (MDR E. coli ASEC 1; ASEC 1) was “R”. For the same compound, the MIC (MDR E. coli ASEC 4; ASEC 4 (ESBL), resistance information of clinical isolate) was greater than 32 µg/mL, the susceptibility category (MDR E. coli ASEC 4; ASEC 4) was “R” and the MIC (MDR E. coli ASEC 12; ASEC 12 (AmpC), resistance information of clinical isolate) was greater than 32 µg/mL. For the same compound, the susceptibility category (MDR E. coli ASEC 12; ASEC 12) was “R”, the MIC (MDR E. coli ASEC 6; ASEC 6 (ESBL), resistance information of clinical isolate) was greater than 32 µg/mL and the susceptibility category (MDR E. coli ASEC 6; ASEC 6) was “R”.
